From ChEMBL document CHEMBL4000170 (Eur J Med Chem, 2017)
Activity calls are given as the source filed them. No cut-off for these calls is given here.

Assays:
[1] = Antiproliferative activity against human LNCaP-hr cells expressing AR T877A mutant after 3 days by MTT assay; assay type: functional, cell-based; conditions: 72 h
DU-145 = assay: Antiproliferative activity against AR negative human DU145 cells after 3 days by MTT assay; assay type: functional, cell-based; conditions: DU-145, 72 h
[2] = target: T1, Androgen receptor (Homo sapiens) (UniProt P10275); conditions: at 10 µM
T1 sequence (whole entry): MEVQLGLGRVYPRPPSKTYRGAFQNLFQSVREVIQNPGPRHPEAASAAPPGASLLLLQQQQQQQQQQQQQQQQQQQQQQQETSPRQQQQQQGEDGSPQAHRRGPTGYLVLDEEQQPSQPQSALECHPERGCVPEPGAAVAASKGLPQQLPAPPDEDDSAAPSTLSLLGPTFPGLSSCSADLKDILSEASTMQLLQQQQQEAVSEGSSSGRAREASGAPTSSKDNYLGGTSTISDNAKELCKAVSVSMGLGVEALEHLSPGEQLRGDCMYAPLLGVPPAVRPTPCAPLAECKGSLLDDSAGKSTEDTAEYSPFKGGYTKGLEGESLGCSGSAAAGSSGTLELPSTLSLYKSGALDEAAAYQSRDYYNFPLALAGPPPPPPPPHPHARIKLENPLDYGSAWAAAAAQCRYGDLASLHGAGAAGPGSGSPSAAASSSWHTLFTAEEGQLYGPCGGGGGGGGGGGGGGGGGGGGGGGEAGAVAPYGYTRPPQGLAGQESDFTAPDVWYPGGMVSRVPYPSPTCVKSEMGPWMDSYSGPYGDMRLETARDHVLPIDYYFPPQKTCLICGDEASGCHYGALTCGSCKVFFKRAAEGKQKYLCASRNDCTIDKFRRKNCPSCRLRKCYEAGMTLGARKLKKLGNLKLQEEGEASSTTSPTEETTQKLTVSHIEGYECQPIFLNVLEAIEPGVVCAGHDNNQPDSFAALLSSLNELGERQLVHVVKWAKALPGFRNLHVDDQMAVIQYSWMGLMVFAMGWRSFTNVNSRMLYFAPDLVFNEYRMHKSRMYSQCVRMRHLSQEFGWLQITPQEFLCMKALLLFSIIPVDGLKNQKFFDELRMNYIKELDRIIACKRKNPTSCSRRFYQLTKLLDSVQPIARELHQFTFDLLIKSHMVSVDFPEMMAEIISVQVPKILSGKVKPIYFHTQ
Description: Antagonist activity at androgen receptor (unknown origin) expressed in COS-7 cells assessed as inhibition of R1881-induced MMTV promoter activity at 10 uM by luciferase reporter gene assay relative to control

[3] = tested on: Androgen receptor (Homo sapiens), P10275 [T878A]; conditions: at 10 µM
Androgen receptor (Homo sapiens), P10275 [T878A], sequence (P10275 whole entry T878A, the tested form may be a part): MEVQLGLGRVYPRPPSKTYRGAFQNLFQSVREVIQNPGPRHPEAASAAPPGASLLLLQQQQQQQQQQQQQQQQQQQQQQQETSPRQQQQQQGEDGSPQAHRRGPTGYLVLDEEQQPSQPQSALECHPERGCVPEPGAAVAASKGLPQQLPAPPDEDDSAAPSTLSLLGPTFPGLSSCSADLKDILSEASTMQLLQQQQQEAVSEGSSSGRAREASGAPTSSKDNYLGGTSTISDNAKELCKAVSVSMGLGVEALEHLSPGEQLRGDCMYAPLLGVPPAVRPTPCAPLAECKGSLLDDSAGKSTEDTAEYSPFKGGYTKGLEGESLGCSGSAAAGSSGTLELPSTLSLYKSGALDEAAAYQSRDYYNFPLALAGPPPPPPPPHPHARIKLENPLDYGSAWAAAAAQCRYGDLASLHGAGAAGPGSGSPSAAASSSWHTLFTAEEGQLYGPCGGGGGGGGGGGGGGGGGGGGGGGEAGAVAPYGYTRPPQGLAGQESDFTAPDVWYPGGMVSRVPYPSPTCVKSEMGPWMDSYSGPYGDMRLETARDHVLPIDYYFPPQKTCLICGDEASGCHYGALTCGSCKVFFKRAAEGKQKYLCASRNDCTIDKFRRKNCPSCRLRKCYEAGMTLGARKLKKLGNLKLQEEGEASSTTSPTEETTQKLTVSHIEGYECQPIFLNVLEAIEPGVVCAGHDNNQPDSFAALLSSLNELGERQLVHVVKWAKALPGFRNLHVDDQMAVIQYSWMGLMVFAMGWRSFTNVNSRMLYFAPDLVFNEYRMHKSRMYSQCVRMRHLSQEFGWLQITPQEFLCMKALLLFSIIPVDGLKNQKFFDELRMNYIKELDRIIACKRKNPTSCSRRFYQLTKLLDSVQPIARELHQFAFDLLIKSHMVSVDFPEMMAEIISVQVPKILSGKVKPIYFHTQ
Description: Inhibition of R1881-induced AR T877A mutant nuclear translocation in human LNCAP cells assessed as reduction in ratio of nuclear to cytoplasmic AR levels at 10 uM after 12 hrs by DAPI-staining based fluorescent microscopy

[4] = Displacement of Fluormone-AL green from rat GST/His-tagged AR LBD mutant after 4 hrs by Fluorescence polarization assay

Row | Structure (SMILES) | IC50 [1] [µM] | IC50 (DU-145) [µM] | inhibition [2] | inhibition [3] | IC50 [4] [µM]
1 | CNC(=O)c1ccc2c(c1)N1C(=S)N(c3ccc(C#N)c(C(F)(F)F)c3)C(=O)C1C2 (configuration not stated) | 144 | > 200 | 13.1% | – | –
2 | CCNC(=O)c1cc2c(cc1F)N1C(=S)N(c3ccc(C#N)c(C(F)(F)F)c3)C(=O)C1C2 (configuration not stated) | 54.1 | 115 | inactive | – | –
3 | CCCNC(=O)c1ccc2c(c1)N1C(=S)N(c3ccc(C#N)c(C(F)(F)F)c3)C(=O)C1C2 (configuration not stated) | 90.8 | 114 | inactive | – | –
4 | CCNC(=O)c1ccc2c(c1)N1C(=S)N(c3ccc(C#N)c(C(F)(F)F)c3)C(=O)C1C2 (configuration not stated) | 35.3 | 105 | 2.1% | – | –
5 | CCCCNC(=O)c1cc2c(cc1F)N1C(=S)N(c3ccc(C#N)c(C(F)(F)F)c3)C(=O)C1C2 (configuration not stated) | 67.3 | 175 | inactive | – | –
6 | N#Cc1ccc(N2C(=O)C3Cc4cc([N+](=O)[O-])ccc4N3C2=S)cc1C(F)(F)F (configuration not stated) | 64.7 | 78.4 | 21.8% | – | –
7 | CC(O)CNC(=O)c1ccc2c(c1)N1C(=S)N(c3ccc(C#N)c(C(F)(F)F)c3)C(=O)C1C2 (configuration not stated) | 48.4 | > 200 | 39.3% | – | –
8 | N#Cc1ccc(N2C(=O)C3Cc4ccc(I)cc4N3C2=S)cc1C(F)(F)F (configuration not stated) | 71.9 | 190 | 58.4% | – | –
9 | N#Cc1ccc(N2C(=O)C3Cc4ccc(Cl)cc4N3C2=S)cc1C(F)(F)F (configuration not stated) | 27.9 | > 200 | 71.9% | Active | 2.33
10 | N#Cc1ccc(N2C(=O)C3Cc4cc(N)ccc4N3C2=S)cc1C(F)(F)F (configuration not stated) | 99.1 | > 200 | 23.4% | – | –
11 | N#Cc1ccc(N2C(=O)c3cc4ccccc4n3C2=S)cc1C(F)(F)F | 33.4 | 146 | 21.1% | – | –
12 | C[C@]1(O)CC[C@H]2[C@@H]3CCC4=CC(=O)CCC4=C3C=C[C@@]21C | – | – | inactive | – | –
13 | N#Cc1ccc(N2C(=O)C3Cc4ccccc4N3C2=S)cc1C(F)(F)F (configuration not stated) | 15.3 | 143 | – | – | –
14 | N#Cc1ccc(N2C(=O)C3Cc4ccc(C(=O)NCCO)cc4N3C2=S)cc1C(F)(F)F (configuration not stated) | 25.8 | 175 | 37% | – | –
15 | CC(C)CNC(=O)c1cc2c(cc1F)N1C(=S)N(c3ccc(C#N)c(C(F)(F)F)c3)C(=O)C1C2 (configuration not stated) | 70.7 | > 200 | inactive | – | –
16 | N#Cc1ccc(N2C(=O)C3Cc4ccc(Br)cc4N3C2=S)cc1C(F)(F)F (configuration not stated) | 30.4 | > 200 | 68.3% | – | 2.98
17 | N#Cc1ccc(N2C(=O)C3Cc4ccc(N)cc4N3C2=S)cc1C(F)(F)F (configuration not stated) | 32.6 | 67 | 29% | – | –
18 | N#Cc1ccc(N2C(=O)C3Cc4cc(Br)ccc4N3C2=S)cc1C(F)(F)F (configuration not stated) | 83.7 | > 200 | 57.1% | – | –
19 | N#Cc1ccc(N2C(=O)C3CC(O)CN3C2=S)cc1C(F)(F)F (configuration not stated) | 52.6 | > 200 | 1.9% | – | –
20 | N#Cc1ccc(N2C(=O)C3Cc4ccc([N+](=O)[O-])cc4N3C2=S)cc1C(F)(F)F (configuration not stated) | 26.9 | > 200 | 58.2% | – | 4.49
21 | CCCNC(=O)c1cc2c(cc1F)N1C(=S)N(c3ccc(C#N)c(C(F)(F)F)c3)C(=O)C1C2 (configuration not stated) | 11.2 | > 200 | inactive | – | –
22 | N#Cc1ccc(N2C(=O)C3CC4CCCCC4N3C2=S)cc1C(F)(F)F (configuration not stated) | 36.2 | 128 | 50.5% | – | –
23 | CNC(=O)c1ccc(N2C(=S)N(c3ccc(C#N)c(C(F)(F)F)c3)C(=O)C2(C)C)cc1F [ENZALUTAMIDE] | 12.5 | – | – | – | 1.35
24 | N#Cc1ccc(N2C(=O)C3Cc4cc(Cl)ccc4N3C2=S)cc1C(F)(F)F (configuration not stated) | 46 | 160 | 6.7% | – | –
25 | N#Cc1ccc(N2C(=O)C3Cc4ccc(C(=O)NC5CCCCC5)cc4N3C2=S)cc1C(F)(F)F (configuration not stated) | 29.3 | 101 | 22.9% | – | –
26 | CNC(=O)c1cc2c(cc1F)N1C(=S)N(c3ccc(C#N)c(C(F)(F)F)c3)C(=O)C1C2 (configuration not stated) | 58.2 | > 200 | inactive | – | –
27 | N#Cc1ccc(N2C(=O)C3Cc4cc(C(=O)NC5CCCCC5)c(F)cc4N3C2=S)cc1C(F)(F)F (configuration not stated) | 44.9 | 126 | 55.1% | – | –
28 | N#Cc1ccc(N2C(=O)C3CCCN3C2=S)cc1C(F)(F)F (configuration not stated) | 87.7 | > 200 | 32% | – | –
29 | CCCCNC(=O)c1ccc2c(c1)N1C(=S)N(c3ccc(C#N)c(C(F)(F)F)c3)C(=O)C1C2 (configuration not stated) | 77.2 | 58 | inactive | – | –
